Data as given in patent US20100152302A1, “NOVEL CRYSTALLINE FORMS OF ATOVAQUONE” (HETERO DRUGS LIMITED, priority 2007, published 2010).
Several values for one entry are separate records, joined by “and”; a condition that tells them apart may be missing. Equal values may be shown once.

Experiments:
[1] = Specific surface area by B.E.T. nitrogen absorption analysis; type: physicochemical; conditions: isolated crystalline solid of the example, after drying or spray drying
Description: Specific surface area is defined in units of square meters per gram (m^2/g). It is usually measured by nitrogen absorption analysis. In this analysis, nitrogen is absorbed on the surface of the substance. The amount of the absorbed nitrogen (as measured during the absorption or the subsequent desorption process) is related to the surface area via a formula known as the B.E.T. formula.

[2] = cited from earlier work

With `O=C1C(O)=C([C@H]2CC[C@H](c3ccc(Cl)cc3)CC2)C(=O)c2ccccc21` [atovaquone crystalline form A, trans-2-[4-(4-chlorophenyl)cyclohexyl]-3-hydroxy-1,4-naphthoquinone] the “Specific Surface Area” value [1] was 0.76 m^2/g.
In the case of `O=C1C(O)=C([C@H]2CC[C@H](c3ccc(Cl)cc3)CC2)C(=O)c2ccccc21` [atovaquone crystalline form B, trans-2-[4-(4-chlorophenyl)cyclohexyl]-3-hydroxy-1,4-naphthoquinone], the “Specific Surface Area” value [1] is reported as 2.84 m^2/g and 3.12 m^2/g.
In the case of `O=C1C(O)=C([C@H]2CC[C@H](c3ccc(Cl)cc3)CC2)C(=O)c2ccccc21` [atovaquone Form I, trans-2-[4-(4-chlorophenyl)cyclohexyl]-3-hydroxy-1,4-naphthoquinone], the “Specific Surface Area” value [1] is reported as 0.54 m^2/g.
For `O=C1C(O)=C([C@H]2CC[C@H](c3ccc(Cl)cc3)CC2)C(=O)c2ccccc21` [Atovaquone, trans-2-[4-(4-chlorophenyl)cyclohexyl]-3-hydroxy-1,4-naphthoquinone], the solubility in chloroform ([2]; chloroform) is listed as “soluble” and the solubility in water ([2]; water) is listed as “practically insoluble”.
